US20250206738A1, “WRN INHIBITORS” (Nimbus Wadjet, Inc., priority 2023, published 2025)

biological target: T1, human Werner helicase (WRN, Uniprot Q14191, amino acids 517-1235 with L1074F point mutation; WRN-BV08) (Homo sapiens, UniProt Q14191, L1074F); assay: WRN (BV08) ADP-Glo assay; assay type: biochemical; details: WRN-BV08 (aa 517-1235, L1074F); read-out: ADP-Glo_hWRN_IC50
T1 construct: Uniprot Q14191, amino acids 517-1235 with L1074F point mutation; 8xHis (C, cleaved yes); TEV cleavage site (ENLYFQG) (C, cleaved yes); made in house; host or cells: Sf9 insect cells (baculovirus, pFastBac)
From the text: Example 2: WRN (BV08) ADP-Glo Assay Protocol
Bovine skin gelatin (BSG), dimethyl sulfoxide (DMSO), Pluronic F-127 and tris(2-carboxyethyl)phosphine hydrochloride solution (TCEP) were purchased from Sigma-Aldrich (St. Louis, MO) at the highest level of purity possible. Bicine buffer solution was purchased from Alfa Aesar (Tewksbury, MA) and compound NSC-617145 was purchased from Tocris (Minneapolis, MN). DNA duplex was synthesized at BGI (Shenzhen, China) and was composed of strand 1 with the sequence 5′-[…]-3′ (SEQ ID NO.: 1) and strand 2 with the sequence 5′-[…]-3′ (SEQ ID NO.: 2). DNA strands were annealed by heating to 95° C. for 5 minutes followed by slow cooling to room temperature. Compounds in 100% DMSO ([…]) were spotted into a 384-well white polystyrene Optiplate-384 (Perkin Elmer; Waltham, MA) assay plate using a LabCyte Echo 550 (Agilent; Santa Clara, CA). DMSO ([…]) was added to columns 12, rows A-H and column 24, rows I-P for the maximum signal control. Compound NSC-617145 ([…]) was added to columns 12, rows I-P and 24, rows A-H for the minimum signal control (100% inhibition). Compounds/DMSO were preincubated for 15 minutes at 25° C. with […] 2×WRN (BV08), prepared as described below, in assay buffer containing 20 mM Bicine (pH=7.5), 1 mM MgCl2, 10 mM KCl, 0.1% Pluronic F-127, 0.005% BSG, 1 mM TCEP. The reaction was initiated by the addition of […] 2× substrate mixture in assay buffer and incubated for 60 minutes at 25° C. The final concentrations of the assay components were 0.15 nM WRN, […], and 0.1 nM DNA duplex. The final DMSO concentration was 1% and the reference compound concentration (NSC-617145) used for the minimal signal control was […]. The reaction was stopped by the addition of the ADP-Glo Kit components (Promega; Madison, WI) as directed and the relative luminescence units (RLU) were read on an Envision 2104 (Perkin Elmer; Waltham, MA).
% Inhibition Calculation:
Where RLU=relative luminescence units, sample=signal in sample well, and MIN and MAX are the respective minimum and maximum signal controls.
Four-Parameter IC50 Fit Equation:
Where top and bottom are normally allowed to float but may be fixed at 100 or 0 respectively in a 3-parameter fit. Y is the % inhibition and X is the compound concentration.
Molecular Biology and virus production. The DNA encoding human Werner helicase (Uniprot Q14191, amino acids 517-1235 with L1074F point mutation) was generated with codon-optimization for […] expression and subcloned into the pFastBac vector with a TEV cleavable 8×His tag (SEQ ID NO: 5) (WRN—BV08). The baculovirus from the expression plasmid WRN—BV08 was generated from transfection and amplification following the manufacturer's instructions.
Sf9 cells grown in SF900II media were infected with 1:200 WRN—BV08 P2 virus and incubated for protein expression for 72 h at 27° C. The WRN protein was purified using the following protocol. The cell pellets were thawed and resuspended in buffer A (50 mM Tris, pH 7.5, 500 mM NaCl, 1 mM TCEP, 10% Glycerol) supplemented with 0.5% CHAPS, 1 mM PMSF, 1 μg/ml Leupeptin, 1 μg/ml Pepstatin, and the Pierce Universal Nuclease and cocktail tablet. Cleared lysates were loaded onto a Ni Sepharose™ excel column and washed with buffer A and bound protein was eluted with buffer A supplemented with 300 mM imidazole. The eluted protein was dialyzed against buffer A and digested by His-tagged TEV (1:5 ratio) overnight at 4° C. ZnCl2 was added into the sample at final 15 μM before loading onto a second Ni Sepharose™ excel column. Untagged WRN protein was eluted from the column with buffer A supplemented with 20 mM imidazole, dialyzed overnight into buffer B (50 mM Tris, pH 7.5, 1 mM TCEP, 10% Glycerol) supplemented with 150 mM NaCl and loaded onto a Heparin column. Proteins were eluted with a step gradient of buffer B supplemented with 150 mM, 200 mM, 300 mM and 500 mM NaCl. […]

T1 sequence (Q14191 with tags, fused parts or gaps L1074F): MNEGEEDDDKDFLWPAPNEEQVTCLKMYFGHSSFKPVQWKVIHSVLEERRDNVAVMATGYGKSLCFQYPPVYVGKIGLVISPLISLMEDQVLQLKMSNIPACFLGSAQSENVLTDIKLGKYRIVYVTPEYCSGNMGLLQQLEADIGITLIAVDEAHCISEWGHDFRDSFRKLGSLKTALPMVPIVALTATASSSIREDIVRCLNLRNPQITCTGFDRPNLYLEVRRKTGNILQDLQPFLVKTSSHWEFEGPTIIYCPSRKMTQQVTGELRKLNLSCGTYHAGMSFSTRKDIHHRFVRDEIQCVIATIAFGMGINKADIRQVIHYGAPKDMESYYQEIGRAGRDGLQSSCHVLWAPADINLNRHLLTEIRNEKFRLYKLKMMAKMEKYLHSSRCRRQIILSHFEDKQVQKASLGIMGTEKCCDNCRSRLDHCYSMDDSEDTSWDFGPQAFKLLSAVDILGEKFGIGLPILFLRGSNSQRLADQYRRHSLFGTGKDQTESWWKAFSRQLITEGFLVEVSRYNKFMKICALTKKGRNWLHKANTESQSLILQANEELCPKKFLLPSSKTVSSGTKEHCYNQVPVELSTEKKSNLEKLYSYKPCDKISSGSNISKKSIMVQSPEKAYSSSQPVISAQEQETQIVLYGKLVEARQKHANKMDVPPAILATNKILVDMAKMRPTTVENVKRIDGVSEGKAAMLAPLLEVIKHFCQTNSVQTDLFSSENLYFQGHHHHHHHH

Structure (SMILES) | IC50 [nM]
CCc1c(N2CCN(C(=O)c3ncc4c(c3O)CCO4)CC2)c(=O)n2nc(C3=CCOCC3)nc2n1CC(=O)NC12CC(OC)(C1)C2 [I-12, 2-(2-(3,6-dihydro-2H-pyran-4-yl)-5-ethyl-6-(4-(4-hydroxy-2,3-dihydrofuro[2,3-c]pyridine-5-carbonyl)piperazin-1-yl)-7-oxo-[1,2,4]triazolo[1,5-a]pyrimidin-4(7H)-yl)-N-(3-methoxybicyclo[1.1.1]pentan-1-yl)acetamide] | > 500
CCc1c(N2CCN(C(=O)c3ncnc(C)c3O)[C@H]3CC[C@@H]32)c(=O)c2nn(-c3ccnc(OC)c3)nc2n1CC(=O)NC12CC(C3CCCC3)(C1)C2 [I-183, N-{3-cyclopentylbicyclo[1.1.1]pentan-1-yl}-2-{5-ethyl-6-[(1S,6S)-5-(5-hydroxy-6-methylpyrimidine-4-carbonyl)-2,5-diazabicyclo[4.2.0]octan-2-yl]-2-(2-methoxypyridin-4-yl)-7-oxo-2H,4H,7H-[1,2,3]triazolo[4,5-b]pyridin-4-yl}acetamide] | ≤ 5
CCc1c(N2CCN(C(=O)c3ncnc(C)c3O)[C@H]3CC[C@@H]32)c(=O)c2nn(C3=CCOCC3)nc2n1CC(=O)NC1CC2(CCC2)C1 [I-185, 2-[2-(3,6-dihydro-2H-pyran-4-yl)-5-ethyl-6-[(1S,6S)-5-(5-hydroxy-6-methylpyrimidine-4-carbonyl)-2,5-diazabicyclo[4.2.0]octan-2-yl]-7-oxo-2H,4H,7H-[1,2,3]triazolo[4,5-b]pyridin-4-yl]-N-{spiro[3.3]heptan-2-yl}acetamide] | 5 to 50
CCc1c(N2CCN(C(=O)c3ncnc(C)c3O)[C@H]3CC[C@@H]32)c(=O)c2nn(C3=CCN(CC(F)F)CC3)nc2n1CC(=O)NC12CC(C3CC3)(C1)C2 [I-174, N-{3-cyclopropylbicyclo[1.1.1]pentan-1-yl}-2-{2-[1-(2,2-difluoroethyl)-1,2,3,6-tetrahydropyridin-4-yl]-5-ethyl-6-[(1S,6S)-5-(5-hydroxy-6-methylpyrimidine-4-carbonyl)-2,5-diazabicyclo[4.2.0]octan-2-yl]-7-oxo-2H,4H,7H-[1,2,3]triazolo[4,5-b]pyridin-4-yl}acetamide] | 5 to 50
CCc1c(N2CCN(C(=O)c3c(OC)ncc(F)c3O)[C@H]3CC[C@@H]32)c(=O)c2nn(-c3ccnc(OC)c3)nc2n1CC(=O)NC12CC(C(C)C)(C1)C2 [I-166, 2-{5-ethyl-6-[(1S,6S)-5-(5-fluoro-4-hydroxy-2-methoxypyridine-3-carbonyl)-2,5-diazabicyclo[4.2.0]octan-2-yl]-2-(2-methoxypyridin-4-yl)-7-oxo-2H,4H,7H-[1,2,3]triazolo[4,5-b]pyridin-4-yl}-N-[3-(propan-2-yl)bicyclo[1.1.1]pentan-1-yl]acetamide] | ≤ 5
CCc1c(N2CCN(C(=O)c3c(COC)cccc3OC)[C@H]3CC[C@@H]32)c(=O)c2nn(C3=CCOCC3)nc2n1CC(=O)NC12CC(C3CC3)(C1)C2 [I-199, N-{3-cyclopropylbicyclo[1.1.1]pentan-1-yl}-2-[2-(3,6-dihydro-2H-pyran-4-yl)-5-ethyl-6-[(1S,6S)-5-[2-methoxy-6-(methoxymethyl)benzoyl]-2,5-diazabicyclo[4.2.0]octan-2-yl]-7-oxo-2H,4H,7H-[1,2,3]triazolo[4,5-b]pyridin-4-yl]acetamide] | 5 to 50
CCc1c(N2CCN(C(=O)c3ncc4c(c3O)CCO4)CC2)c(=O)n2nc(C3=CCOCC3)nc2n1CC(=O)NC12CC(F)(C1)C2 [I-6, 2-(2-(3,6-dihydro-2H-pyran-4-yl)-5-ethyl-6-(4-(4-hydroxy-2,3-dihydrofuro[2,3-c]pyridine-5-carbonyl)piperazin-1-yl)-7-oxo-[1,2,4]triazolo[1,5-a]pyrimidin-4(7H)-yl)-N-(3-fluorobicyclo[1.1.1]pentan-1-yl)acetamide] | > 500
